For series [1] the following is noted: male, CD1, mouse, in vivo.
Protocol: (§4) Pharmacokinetic parameters were determined by administration of a candidate bromodomain inhibitor to male CD1 mice. Intravenous doses were delivered at 5 mg/kg, and oral doses at 10 mg/kg (N=3). […] The compound concentration in mouse blood was monitored over 24-hour time period to check the compound concentration in blood at 5 min, 30 min, 1 hour, 2 hours, 6 hours, 12 hours, and 24 hour via a series bleeding.
Series [2] in a line: in vivo. To be noted: male, CD1, mouse, iv, 1 mg/kg.
Protocol: as §4
In series [3] the target is BRDT(1) (Homo sapiens (Human), UniProt Q58F21). The series is described as follows: AlphaScreen acetyl-histone binding assay, BRDT(1). Particulars: H4K5acK8acK12acK16ac peptide. As to the method:
(§1) The IC50 values of the compounds were determined by ALPHASCREENING assays for BRD4 and BRDT protein. NMC797 cell line is a BRD4 dependant NUT midline carcinoma line.
(§2) Acetyl-Histone Binding Assay.
(§3) Assays were performed as described previously with minor modifications from the manufacturer's protocol (PerkinElmer, USA). All reagents were diluted in 50 mM HEPES, 100 mM NaCl, 0.1% BSA, pH 7.4 supplemented with 0.05% CHAPS and allowed to equilibrate to room temperature prior to addition to plates. A 24-point 1:2 serial dilution of the ligands was prepared over the range of 150-0 μM and 4 μl transferred to low-volume 384-well plates (PROXIPLATE™-384 Plus, PerkinElmer, USA), followed by 4 μl of HIS-tagged protein (BRD4/1, 250 nM, BRD4/2 and CREBBP, 2000 nM). […] Plates were sealed and incubated for a further 30 minutes, before the addition of 4 μl of streptavidin-coated donor beads (25 μg/ml) and 4 μl nickel chelate acceptor beads (25 μg/ml) under low light conditions. Plates were foil-sealed to protect from light, incubated at room temperature for 60 minutes and read on a PHERASTAR FS plate reader (BMG Labtech, Germany) using an ALPHASCREEN 680 excitation/570 emission filter set. IC50 values were calculated in Prism 5 ([…] Software, USA) after normalization against corresponding DMSO controls and are given as the final concentration of compound in the 20 μl reaction volume.

Series [4] concerns the target BRD4(1) (Homo sapiens (Human), UniProt O60885). The series is described as follows: AlphaScreen acetyl-histone binding assay, BRD4(1). Particulars: H4K5acK8acK12acK16ac peptide. As to the method: as §1, §2, §3
Series [5] deals with NMC797 cell line (BRD4 dependant NUT midline carcinoma line). The series is described as follows: Cell proliferation assay (ATP content), NMC797. It counts as cell-based. Particulars: 48-hour incubation. As to the method:
as §1
Cell Proliferation Assay.
Cells were seeded into white, 384-well microtiter plates (Nunc) at 500 cells per well in a total volume of 50 μL media. The 797, TT, and TE10 cells were grown in DMEM containing 1% penicillin/streptomycin and 10% FBS. The Per403 cells were grown in DMEM containing 1% penicillin/streptomycin and 20% FBS. Compounds were delivered to microtiter assay plates by robotic pin transfer (PerkinElmer JANUS equipped with a V&P Scientific 100 nL pin tool). Following a 48-hour incubation at 37° C., cells were lysed and wells were assessed for total ATP content using a commercial proliferation assay (Cell TITERGLO; Promega). Replicate measurements were analyzed with respect to dose and estimates of IC50 were calculated by logistic regression ([…] PRISM).

Series [6] can be described thus: Pharmacokinetics in male CD1 mice, IV administration. To be noted: whole blood; for AUC(0-inf) / AUC(0-t) / MRT inf / Vd / clearance / half-life: male, CD1, mouse, iv, 5 mg/kg.
Protocol: as §4
A short description of series [7]: Pharmacokinetics in male CD1 mice, oral administration. To be noted: for F: oral 10 mg/kg (IV 5 mg/kg).
Protocol: as §4
[8] abbreviates: male CD1 mice, oral 10 mg/kg, whole blood, N=3.
[9] abbreviates: male, CD1, mouse, whole blood, po, 10 mg/kg.

Read-outs that look alike come from different tables or passages of the source.

In general, half-life refers to how long it takes for the measured level to halve. The term IC50 denotes the midpoint of a concentration-inhibition curve. The low end stands for higher potency, the high end for lower potency. What is called Cmax is the maximum level reached in the sampled fluid or tissue. What is called Tmax is the time from dosing to the highest level. One may read the AUC(0-inf) as the area under the concentration-time curve extrapolated to infinity. One may read the AUC(0-t) as exposure summed from dosing to a finite time, without extrapolation to infinity. Low readings indicate low exposure, high ones high exposure. A word on the MRT inf: it is a mean duration of stay, worked out from the concentration-time curve. The Vd is a proportionality between amount in the body and measured concentration, not a real space. By clearance is commonly meant the rate of elimination divided by the concentration. Low values mean a low capacity for elimination, high ones a high capacity for elimination.

Regarding `Cc1sc2c(c1C)C(c1ccc(Cl)cc1)=N[C@@H](CC(=O)NCC1CCN(CCN(C)C)CC1)c1nnc(C)n1-2` [Compound 601], the F in series [1] amounted to 4%. In addition, in series [2], the half-life is 11.7 h.

`Cc1sc2c(c1C)C(c1ccc(Cl)cc1)=N[C@@H](CC(=O)NCCCN1CCCC1)c1nnc(C)n1-2` [Compound 604] displayed a F in series [1] of 7%. Moreover, in series [2], the half-life was 2 h.

In turn, `Cc1sc2c(c1C)C(c1ccc(Cl)cc1)=N[C@@H](CC(=O)N1CCn3c(nnc3C(F)(F)F)C1)c1nnc(C)n1-2` [Compound 605] had a F in series [1] of 6%. The half-life in series [2] was 0.5 h.

Consider `Cc1sc2c(c1C)C(c1ccc(Cl)cc1)=N[C@@H](CC(=O)NCC(C)(C)O)c1nnc(C)n1-2` [Compound 503], for which the IC50 in series [3] stood at 89 nM; in series [4], 44 nM; in series [5] (NMC-797, NMC797 cells), 42 nM.

For the molecule `Cc1sc2c(c1C)C(c1ccc(Cl)cc1)=N[C@@H](CC(=O)OC(C)(C)C)c1nnc(C)n1-2` [JQ1, reference compound], the IC50 in series [5] (NMC797 cells) was 21 nM. Further, in series [6] (male CD1 mice, IV 5 mg/kg, N=3), the AUCINF was found to be 2130 ng·h/mL, the AUClast turned out to be 2130 ng·h/mL, the CL worked out at 39.2 mL/min/kg and the MRTINF was 0.861 h. Further, in series [7] (setting [8]), the AUCINF was found to be 2090 ng·h/mL, the AUClast came out at 2040 ng·h/mL, the Cmax stood at 1180 ng/mL and the Tmax worked out at 0.250 h.

Consider `Cc1sc2c(c1C)C(c1ccc(Cl)cc1)=N[C@@H](CC(=O)NCCC(F)F)c1nnc(C)n1-2` [Compound 505], for which the IC50 in series [3] stood at 75 nM; in series [5] (NMC-797, NMC797 cells), 93 nM.

Regarding `Cc1sc2c(c1C)C(c1ccc(Cl)cc1)=N[C@@H](CC(=O)N1CCC(N3CCCCC3)CC1)c1nnc(C)n1-2` [Compound 603], the F in series [1] turned out to be 20%. Further, the half-life in series [2] is 1 h.

As for `Cc1sc2c(c1C)C(c1ccc(Cl)cc1)=N[C@@H](CC(=O)NCCCN1CCC(N3CCCCC3)CC1)c1nnc(C)n1-2` [Compound 602], in series [1], the F is given as 2%. Besides, in series [2], the half-life was 21 h.

In turn, `Cc1sc2c(c1C)C(c1ccc(Cl)cc1)=N[C@@H](CC(=O)NC[C@@H](C)O)c1nnc(C)n1-2` [Compound 502] came in with an IC50 in series [3] of 61 nM. This molecule yielded an IC50 in series [5] (NMC-797, NMC797 cells) of 29 nM. In series [6], this molecule showed an AUC(0-inf) of 2960 ng·h/mL, an AUC(0-t) of 2940 ng·h/mL, an MRT inf of 0.882 h and a volume of distribution (Vd) of 1.48 L/kg. Besides, in series [6], the clearance is 29.5 mL/min/kg and the half-life was 1.06 h. The molecule further had a F in series [7] (male CD1 mice, N=3) of 53.4%. In addition, in series [7] (setting [9]), the AUC(0-inf) amounted to 3160 ng·h/mL, the AUC(0-t) was found to be 3100 ng·h/mL, the Cmax stood at 1430 ng/mL and the Tmax came to 0.5 h. The half-life in series [7] (setting [9]) is 1.37 h.

For `Cc1sc2c(c1C)C(c1ccc(Cl)cc1)=N[C@@H](CC(=O)NC[C@H](C)O)c1nnc(C)n1-2` [Compound 501], the half-maximal inhibitory concentration (IC50) in series [3] stood at 82 nM. In addition, the IC50 in series [5] (NMC-797, NMC797 cells) was found to be 30 nM. In series [6], this molecule gave a total exposure AUC(0-inf) of 2390 ng·h/mL, an AUC(0-t) of 2380 ng·h/mL, an MRT inf of 0.718 h and a Vd of 1.54 L/kg. Also, in series [6], the clearance is 36.7 mL/min/kg and the half-life was 1.51 h. This molecule also registered a F in series [7] (male CD1 mice, N=3) of 53.7%. Besides, in series [7] (setting [9]), the AUC(0-inf) was 2570 ng·h/mL, the area under the curve AUC(0-t) was 2520 ng·h/mL, the Cmax is 1260 ng/mL and the Tmax is 0.417 h. Moreover, the half-life in series [7] (setting [9]) is 1.54 h.

As to `Cc1sc2c(c1C)C(c1ccc(Cl)cc1)=N[C@@H](CC(=O)NCC(F)F)c1nnc(C)n1-2` [Compound 504], the concentration for half-maximal inhibition (IC50) in series [3] is 69 nM; in series [5] (NMC-797, NMC797 cells) it was 54 nM.

The record behind these values is patent publication US10881668B2, “Acetamide thienotriazolodiazepines and uses thereof” (Dana-Farber Cancer Institute, Inc., priority 2015, dated 2021).
